EC50 data for 18 compounds are collected here from patent publication US20140045823A1 (Neurocrine Biosciences, Inc., priority 2012, published 2014).

The assay has as its target T1, human GPR119 (Homo sapiens, UniProt Q8TDV5).
T1 construct: expression vector for human GPR119 cDNA (Acc. No. NP_848566); expressed in transfected cells; Min-6/hGPR119
T1 sequence (Q8TDV5 1-335): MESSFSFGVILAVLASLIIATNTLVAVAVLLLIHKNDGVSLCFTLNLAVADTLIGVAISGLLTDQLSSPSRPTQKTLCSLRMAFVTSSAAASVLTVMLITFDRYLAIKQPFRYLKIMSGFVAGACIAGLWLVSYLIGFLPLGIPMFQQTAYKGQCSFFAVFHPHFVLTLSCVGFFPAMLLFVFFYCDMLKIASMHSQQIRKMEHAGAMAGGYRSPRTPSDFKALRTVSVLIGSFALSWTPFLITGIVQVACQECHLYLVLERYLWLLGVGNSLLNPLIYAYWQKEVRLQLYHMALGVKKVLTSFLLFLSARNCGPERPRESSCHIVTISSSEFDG
Description: AlphaScreen cAMP assay in MIN6 cells stably transfected with human GPR119. The assay is classed as cell-based. Conditions: Min-6/hGPR119 cells, 45 min at room temperature. The procedure, abridged:
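cAMP accumulation quantified by AlphaScreen after 45 min compound stimulation at about 20 °C. Stimulation buffer: pH 7.4 HEPES saline with 0.5 mM IBMX, 0.1% BSA, 1% DMSO final. Cells: MIN6 stably transfected with human GPR119, 10000/well, cultured 24 h beforehand.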
The EC50 is the concentration at which the effect is half-maximal. High values mean a need for much substance, low ones an effect from little substance. As for `CN(Cc1cccnc1)C(=O)c1ccc(-c2ncc(C(=O)N(C3CC3)C3CCN(C(=O)OC(C)(C)C)CC3)cn2)cc1F` [Example 127, 4-(Cyclopropyl-{2-[3-fluoro-4-(methyl-pyridin-3-ylmethyl-carbamoyl)-phenyl]-pyrimidine-5-carbonyl}-amino)-piperidine-1-carboxylic acid tert-butyl ester], the EC50 is 108 nM.
`CC(C)(C)OC(=O)N1CCC(N(C(=O)c2cnc(-c3ccc(C(=O)NCC4CCOCC4)c(F)c3)nc2)C2CC2)CC1` [Example 128, 4-[Cyclopropyl-(2-{3-fluoro-4-[(tetrahydro-pyran-4-ylmethyl)-carbamoyl]-phenyl}-pyrimidine-5-carbonyl)-amino]-piperidine-1-carboxylic acid tert-butyl ester] displayed an EC50 of 156 nM.
As for `CC(C)(C)OC(=O)N1CCC(N(C(=O)c2cnc(-c3ccc(C(=O)N4CCCC(CO)C4)c(F)c3)nc2)C2CC2)CC1` (stereo not drawn) [Example 129, 4-(Cyclopropyl-{2-[3-fluoro-4-(3-hydroxymethyl-piperidine-1-carbonyl)-phenyl]-pyrimidine-5-carbonyl}-amino)-piperidine-1-carboxylic acid tert-butyl ester], the figure is 548 nM; as for `COCC(C)NC(=O)c1ccc(-c2ncc(C(=O)N(C3CC3)C3CCN(C(=O)OC(C)(C)C)CC3)cn2)cc1F` (stereo not drawn) [Example 130, 4-(Cyclopropyl-{2-[3-fluoro-4-(2-methoxy-1-methyl-ethylcarbamoyl)-phenyl]-pyrimidine-5-carbonyl}-amino)-piperidine-1-carboxylic acid tert-butyl ester], 193 nM; as for `CC(C)(C)OC(=O)N1CCC(N(C(=O)c2cnc(-c3ccc(C(=O)NCC4CCOC4)c(F)c3)nc2)C2CC2)CC1` (stereo not drawn) [Example 131, 4-[Cyclopropyl-(2-{3-fluoro-4-[(tetrahydro-furan-3-ylmethyl)-carbamoyl]-phenyl}-pyrimidine-5-carbonyl)-amino]-piperidine-1-carboxylic acid tert-butyl ester], 175 nM.
Consider `CN(CC#N)C(=O)c1ccc(-c2ncc(C(=O)N(C3CC3)C3CCN(C(=O)OC(C)(C)C)CC3)cn2)cc1F` [Example 132, 4-({2-[4-(Cyanomethyl-methyl-carbamoyl)-3-fluoro-phenyl]-pyrimidine-5-carbonyl}-cyclopropyl-amino)-piperidine-1-carboxylic acid tert-butyl ester], for which a half-maximal response (EC50) required 98 nM.
As for `COC1CCN(C(=O)c2ccc(-c3ncc(C(=O)N(C4CC4)C4CCN(C(=O)OC(C)(C)C)CC4)cn3)c(F)c2)CC1` [Example 133, 4-(Cyclopropyl-{2-[2-fluoro-4-(4-methoxy-piperidine-1-carbonyl)-phenyl]-pyrimidine-5-carbonyl}-amino)-piperidine-1-carboxylic acid tert-butyl ester], the EC50 is 516 nM.
In turn, `COC[C@H]1CCCN1C(=O)c1ccc(-c2ncc(C(=O)N(C3CC3)C3CCN(C(=O)OC(C)(C)C)CC3)cn2)c(F)c1` [Example 134, 4-(Cyclopropyl-{2-[2-fluoro-4-(2-methoxymethyl-pyrrolidine-1-carbonyl)-phenyl]-pyrimidine-5-carbonyl}-amino)-piperidine-1-carboxylic acid tert-butyl ester] displayed an EC50 of 561 nM.
With `COCC(C)N(C)C(=O)c1ccc(-c2ncc(C(=O)N(C3CC3)C3CCN(C(=O)OC(C)(C)C)CC3)cn2)c(F)c1` (stereo not drawn) [Example 135, 4-[Cyclopropyl-(2-{2-fluoro-4-[(2-methoxy-1-methyl-ethyl)-methyl-carbamoyl]-phenyl}-pyrimidine-5-carbonyl)-amino]-piperidine-1-carboxylic acid tert-butyl ester], it took 914 nM to reach a half-maximal effect (EC50).
In the case of `Cn1ccc(CNC(=O)c2ccc(-c3ncc(C(=O)N(C4CC4)C4CCN(C(=O)OC(C)(C)C)CC4)cn3)cc2F)n1` [Example 136, 4-[Cyclopropyl-(2-{3-fluoro-4-[(1-methyl-1H-pyrazol-3-ylmethyl)-carbamoyl]-phenyl}-pyrimidine-5-carbonyl)-amino]-piperidine-1-carboxylic acid tert-butyl ester] it was 194 nM.
`COC1CN(C(=O)c2ccc(-c3ncc(C(=O)N(C4CC4)C4CCN(C(=O)OC(C)(C)C)CC4)cn3)cc2F)C1` [Example 137, 4-(Cyclopropyl-{2-[3-fluoro-4-(3-methoxy-azetidine-1-carbonyl)-phenyl]-pyrimidine-5-carbonyl}-amino)-piperidine-1-carboxylic acid tert-butyl ester] had an EC50 of 264 nM.
`CN(CCOCC1CC1)C(=O)c1ccc(-c2ncc(C(=O)N(C3CC3)C3CCN(C(=O)OC(C)(C)C)CC3)cn2)c(F)c1` [Example 138, 4-[Cyclopropyl-(2-{4-[(2-cyclopropylmethoxy-ethyl)-methyl-carbamoyl]-2-fluoro-phenyl}-pyrimidine-5-carbonyl)-amino]-piperidine-1-carboxyli acid tert-butyl ester]: the EC50 was found to be 346 nM.
`CN(Cc1ccncc1)C(=O)c1ccc(-c2ncc(C(=O)N(C3CC3)C3CCN(C(=O)OC(C)(C)C)CC3)cn2)cc1F` [Example 139, 4-(Cyclopropyl-{2-[3-fluoro-4-(methyl-pyridin-4-ylmethyl-carbamoyl)-phenyl]-pyrimidine-5-carbonyl}-amino)-piperidine-1-carboxylic acid tert-butyl ester] returned a 50% effective concentration (EC50) of 263 nM.
In turn, `CN(CC#N)C(=O)c1ccc(-c2ncc(C(=O)N(C3CC3)C3CCN(C(=O)OC(C)(C)C)CC3)cn2)c(F)c1` [Example 140, 4-({2-[4-(Cyanomethyl-methyl-carbamoyl)-2-fluoro-phenyl]-pyrimidine-5-carbonyl}-cyclopropyl-amino)-piperidine-1-carboxylic acid tert-butyl ester] came in with an EC50 of 441 nM.
In turn, `CC(C)(C)OC(=O)N1CCC(N(C(=O)c2cnc(-c3ccc(C(=O)N4CCC(O)(C(F)(F)F)CC4)c(F)c3)nc2)C2CC2)CC1` [Example 141, 4-(Cyclopropyl-{2-[3-fluoro-4-(4-hydroxy-4-trifluoromethyl-piperidine-1-carbonyl)-phenyl]-pyrimidine-5-carbonyl}-amino)-piperidine-1-carboxylic acid tert-butyl ester] returned an EC50 of 231 nM.
In the case of `CC(C)(C)OC(=O)N1CCC(N(C(=O)c2cnc(-c3ccc(C(=O)NCCOC(F)(F)F)c(F)c3)nc2)C2CC2)CC1` [Example 142, 4-(Cyclopropyl-{2-[3-fluoro-4-(2-trifluoromethoxy-ethylcarbamoyl)-phenyl]-pyrimidine-5-carbonyl}-amino)-piperidine-1-carboxylic acid tert-butyl ester] it was 105 nM.
In turn, `COc1ccc(NC(=O)c2ccc(-c3ncc(C(=O)N(C4CC4)C4CCN(C(=O)OC(C)(C)C)CC4)cn3)c(F)c2)c(OC)c1` [Example 143, 4-(Cyclopropyl-{2-[4-(2,4-dimethoxy-phenylcarbamoyl)-2-fluoro-phenyl]-pyrimidine-5-carbonyl}-amino)-piperidine-1-carboxylic acid tert-butyl ester] came in with an EC50 of 168 nM.
As for `CC(C)(C)OC(=O)N1CCC(N(C(=O)c2cnc(-c3ccc(C(=O)NCC4(C)CCCO4)c(F)c3)nc2)C2CC2)CC1` (stereo not drawn) [Example 144, 4-[Cyclopropyl-(2-{3-fluoro-4-[(2-methyl-tetrahydro-furan-2-ylmethyl)-carbamoyl]-phenyl}-pyrimidine-5-carbonyl)-amino]-piperidine-1-carboxylic acid tert-butyl ester], the figure is 230 nM.
